Experimental data reported in patent US20260374766A1, “METHODS FOR TREATING CANCER” (Antares Therapeutics, Inc., priority 2022, published 2026).
Where two headings read alike, the source gives them in different places.

Tests used:
p53 Y220C = p53 Y220C (Homo sapiens, UniProt P04637, Y220C); assay: Luciferase Reporter Assay (Luc), p53 response element, NClH1299 cells with inducible p53 Y220C; assay type: cell-based; conditions: luciferase reporter, NClH1299 inducible p53 Y220C, 6 hour; for AC50: read-out: Luc P53 Y220C AC50
Method in brief: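 Steps: seed 5,000 cells/well; induce mutant p53 with 0.5 ug/mL doxycycline for 24 h; treat with compound 6 h; add equal volume One-Glo, shake 5 min at room temperature; measure luciferase immediately.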

[1] = target: T1, p53 Y220C mutant protein (amino acid residues 94-293) (Homo sapiens, UniProt P04637, Y220C); assay: Surface Plasmon Resonance (SPR) assay, Kd_kinetic; assay type: binding; conditions: read-out: SPR P53 Y220C KD kinetic
T1 construct: p53 Y220C mutant protein (amino acid residues 94-293)
T1 sequence (P04637 94-293, stated change not applied): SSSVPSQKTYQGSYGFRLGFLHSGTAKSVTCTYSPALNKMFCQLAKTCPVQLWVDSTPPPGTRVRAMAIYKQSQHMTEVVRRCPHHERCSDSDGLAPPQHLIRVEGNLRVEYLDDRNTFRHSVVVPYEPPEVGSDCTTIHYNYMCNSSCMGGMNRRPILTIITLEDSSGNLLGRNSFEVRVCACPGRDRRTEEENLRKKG
Method in brief: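 Surface plasmon resonance is run at 16 or 20 °C in 50 mM Tris pH 7.5 containing 100 mM NaCl, 1 mM DTT, 0.01% Brij35, 0.05% Tween-20 and 1% DMSO. Association and dissociation data are fitted to a 1:1 model.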

NUGC3 p53 Y220C = assay: Cell Proliferation Assay (CellTiter-Glo, CTG), NUGC3 p53 Y220C; assay type: cell-based; conditions: Homo sapiens, NUGC-3, 120 h, NUGC3 cells, 5 days, CellTiter-Glo
Method in brief: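 Tet-One inducible p53 Y220C or R273H constructs were stably introduced into NCI-H1299 by lentiviral transduction; NUGC3 was used as is. Cells (250-500 per well) were exposed to compound for 5 days, then CellTiter-Glo was added for 10 min at room temperature and IC50 was calculated from luminescence.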

H1299 p53 R273H = assay: Cell Proliferation Assay (CellTiter-Glo, CTG), H1299 p53 R273H (NClH1299-inducible p53 R273H); assay type: cell-based; conditions: Homo sapiens, NCI-H1299, 120 h, NClH1299-inducible p53 R273H cells, 5 days, CellTiter-Glo
Method in brief: (§1)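 Cells seeded at 250-500 per well and exposed to compound for 5 days. Viability read by CellTiter-Glo luminescence after 10 min at room temperature; IC50 calculated. H1299 lines carry Tet-One inducible p53 mutant constructs introduced by lentiviral transduction.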

H1299 p53 Y220C = assay: Cell Proliferation Assay (CellTiter-Glo, CTG), H1299 p53 Y220C (NClH1299-inducible p53 Y220C); assay type: cell-based; conditions: Homo sapiens, NCI-H1299, 120 h, NClH1299-inducible p53 Y220C cells, 5 days, CellTiter-Glo
Method in brief: as §1

AC50 (p53 Y220C) [nM] | Emax (p53 Y220C) [%] | Kd [1] [nM] | IC50 (H1299 p53 R273H) [nM] | IC50 (H1299 p53 Y220C) [nM] | Kd ([1]; SPR, p53 Y220C) [nM] | SMILES | IC50 (NUGC3 p53 Y220C) [nM]
< 750 | > 90 | < 10 | 8000 to 10000 | < 750 | – | CN1CC[C@H](Nc2cccn3c(SC(F)(F)F)c(C#CCNc4ccc(P(C)(C)=O)c5scnc45)cc23)[C@H](F)C1 [Example 389, 7-(dimethylphosphoryl)-N-[3-(8-{[(3R,4S)-3-fluoro-1-methylpiperidin-4-yl]amino}-3-[(trifluoromethyl)sulfanyl]indolizin-2-yl)prop-2-yn-1-yl]-1,3-benzothiazol-4-amine; formic acid] | < 750
< 750 | > 90 | – | 5000 to 8000 | < 750 | < 10 | COc1nc(P(C)(C)=O)ccc1NCC#Cc1cc2c(N[C@@H]3CCN(C)C[C@@H]3F)cccn2c1SC(F)(F)F [Example 390] | < 750
< 750 | 80 to 90 | – | ≥ 10000 | < 750 | < 10 | O=C(N[C@H]1C[C@@H](O)C1)c1ccc(NCC#Cc2cc3c(N[C@@H]4CCNC[C@@H]4F)cccn3c2SC(F)(F)F)cc1 [Example 391] | < 750
< 750 | 80 to 90 | – | ≥ 10000 | < 750 | < 10 | CNC(=O)c1ccc(NCC#Cc2cc3c(N[C@@H]4CNC[C@@H]4F)cccn3c2SC(F)(F)F)c(OC)c1 [Example 392] | < 750
< 750 | > 90 | – | 5000 to 8000 | < 750 | < 10 | CNC(=O)c1ccc(OC)c(NCC#Cc2cn3c(N[C@@H]4CCN(C)C[C@@H]4F)cccc3c2SC(F)(F)F)c1 [Example 393] | < 750
< 750 | > 90 | – | 5000 to 8000 | < 750 | < 10 | COc1cc(S(C)(=O)=O)ccc1NCC#Cc1cc2c(N[C@@H]3CCNC[C@@H]3F)cccn2c1SC(F)F [Example 394] | < 750
< 750 | > 90 | – | 5000 to 8000 | < 750 | < 10 | CN1CC[C@@H](Nc2cccn3c(SC(F)(F)F)c(C#CCNc4ccc(C(=O)N5CC(C)(O)C5)cc4)cc23)[C@@H](F)C1 [Example 395] | < 750
< 750 | > 90 | – | 8000 to 10000 | < 750 | < 10 | C[C@H](NC(=O)c1ccc(NCC#Cc2cc3c(N[C@@H]4CCN(C)C[C@@H]4F)cccn3c2SC(F)(F)F)cc1)[C@@H](C)O [Example 396] | < 750
< 750 | > 90 | – | 5000 to 8000 | < 750 | < 10 | C[C@@H](O)CNC(=O)c1ccc(NCC#Cc2cc3c(N[C@@H]4CCNC[C@@H]4F)cccn3c2SC(F)(F)F)cc1 [Example 397] | < 750
< 750 | > 90 | – | 5000 to 8000 | < 750 | < 10 | COc1cc2c(cc1NCC#Cc1cc3c(N[C@@H]4CCN(C)C[C@@H]4F)cccn3c1SC(F)(F)F)CNC2=O [Example 399] | < 750
< 750 | 80 to 90 | – | ≥ 10000 | < 750 | < 10 | COc1cc(P(C)(C)=O)cnc1NCC#Cc1cc2c(N[C@@H]3CCN(C)C[C@@H]3F)cccn2c1SC(F)(F)F [Example 402, 2-(3-{[5-(dimethylphosphoryl)-3-methoxypyridin-2-yl]amino}prop-1-yn-1-yl)-N-[(3S,4R)-3-fluoro-1-methylpiperidin-4-yl]-3-[(trifluoromethyl)sulfanyl]indolizin-8-amine] | < 750
< 750 | > 90 | – | ≥ 10000 | < 750 | < 10 | C[C@H](O)CNC(=O)c1ccc(NCC#Cc2cc3c(N[C@@H]4CCNC[C@@H]4F)cccn3c2SC(F)(F)F)cc1 [Example 403] | < 750
< 750 | > 90 | – | 8000 to 10000 | < 750 | < 10 | COc1ccc(C(=O)NC[C@H](C)O)cc1NCC#Cc1cc2c(N[C@@H]3CCN(C)C[C@@H]3F)cccn2c1SC(F)(F)F [Example 404] | < 750
< 750 | > 90 | – | ≥ 10000 | < 750 | < 10 | CNC(=O)c1ccc(NCC#Cc2cc3c(N[C@@H]4CCN(C)C[C@@H]4F)cccn3c2SC(F)(F)F)c(OC2COC2)c1 [Example 405] | < 750
< 750 | 80 to 90 | – | 5000 to 8000 | < 750 | < 10 | COc1cc(C(=O)N2CC(C)(O)C2)ccc1NCC#Cc1cc2c(N[C@@H]3CCNC[C@@H]3F)cccn2c1SC(F)(F)F [Example 406, 1-(4-{[3-(8-{[(3S,4R)-3-fluoropiperidin-4-yl]amino}-3-[(trifluoromethyl)sulfanyl]indolizin-2-yl)prop-2-yn-1-yl]amino}-3-methoxybenzoyl)-3-methylazetidin-3-ol] | < 750
< 750 | > 90 | – | 5000 to 8000 | < 750 | < 10 | CN1CC[C@@H](Nc2cccn3c(SC(F)(F)F)c(C#CCNc4ccc(C(=O)NC[C@H]5COCCO5)cc4)cc23)[C@@H](F)C1 [Example 407] | < 750
< 750 | 80 to 90 | – | 5000 to 8000 | < 750 | < 10 | COc1cc(C(=O)NCC(C)(C)O)ccc1NCC#Cc1cc2c(N[C@@H]3CCNC[C@@H]3F)cccn2c1SC(F)(F)F [Example 408] | < 750
< 750 | > 90 | – | ≥ 10000 | < 750 | < 10 | CN1CC[C@@H](Nc2cccn3c(SC(F)(F)F)c(C#CCNc4cc(C(=O)NCC5(O)CC5)ccc4OC4COC4)cc23)[C@@H](F)C1 [Example 409] | < 750
< 750 | > 90 | – | ≥ 10000 | < 750 | < 10 | COc1ccc(C(=O)N[C@@H](C)[C@@H](C)O)cc1NCC#Cc1cc2c(N[C@@H]3CCN(C)C[C@@H]3F)cccn2c1SC(F)(F)F [Example 410] | < 750
< 750 | > 90 | – | ≥ 10000 | < 750 | < 10 | COc1cc([S@+](C)[O-])ccc1NCC#Cc1cc2c(N[C@@H]3CCN(C)C[C@@H]3F)cccn2c1SC(F)(F)F [Example 411] | < 750
< 750 | > 90 | – | ≥ 10000 | < 750 | < 10 | C[C@@H](O)CNC(=O)c1ccc(NCC#Cc2cc3c(N[C@@H]4CCN(C)C[C@@H]4F)cccn3c2SC(F)(F)F)cc1 [Example 414] | < 750
< 750 | 80 to 90 | – | ≥ 10000 | 750 to 1500 | < 10 | COc1cc(P(C)(C)=O)ccc1NCC#Cc1cn2c(N[C@@H]3CCN(C)C[C@@H]3F)cccc2c1SC(F)F [Example 415] | 750 to 1500
< 750 | 80 to 90 | – | 5000 to 8000 | < 750 | < 10 | COc1cc(C(=O)NC[C@@H](C)O)ccc1NCC#Cc1cc2c(N[C@@H]3CCN(C)C[C@@H]3F)cccn2c1SC(F)(F)F [Example 416, 4-{[3-(8-{[(3S,4R)-3-fluoro-1-methylpiperidin-4-yl]amino}-3-[(trifluoromethyl)sulfanyl]indolizin-2-yl)prop-2-yn-1-yl]amino}-N-[(2R)-2-hydroxypropyl]-3-methoxybenzamide] | < 750
< 750 | > 90 | – | ≥ 10000 | < 750 | < 10 | COc1ccc(C(=O)NCC2(O)CC2)cc1NCC#Cc1cc2c(N[C@@H]3CCN(C)C[C@@H]3F)cccn2c1SC(F)(F)F [Example 417] | < 750
< 750 | > 90 | – | ≥ 10000 | < 750 | < 10 | CN1CC[C@@H](Nc2cccn3c(SC(F)(F)F)c(C#CCNc4ccc(S(C)(=O)=O)cc4)cc23)[C@@H](F)C1 [Example 418] | < 750
< 750 | > 90 | – | 5000 to 8000 | < 750 | < 10 | COc1cc(C(=O)NCC2(O)CC2)ccc1NCC#Cc1cc2c(N[C@@H]3CCN(C)C[C@@H]3F)cccn2c1SC(F)(F)F [Example 419, 4-{[3-(8-{[(3S,4R)-3-fluoro-1-methylpiperidin-4-yl]amino}-3-[(trifluoromethyl)sulfanyl]indolizin-2-yl)prop-2-yn-1-yl]amino}-N-[(1-hydroxycyclopropyl)methyl]-3-methoxybenzamide] | < 750
